Patent US6359009B1, “Substituted anilide insecticidal agents” (BASF Aktiengesellschaft, priority 1998, dated 2002)
Counter-ions that a name gives are not always drawn.

Experiments:
[1] = tested on: Diabrotica undecimrunctata howardi, 3rd instar southern corn rootworm; experiment: Evaluation against 3rd instar southern corn rootworm, treated talc/soil jar test, mortality after 5 days; format: in vivo, Diabrotica undecimpunctata howardi; conditions: mortality rating 0-9 after 5 days in soil
Experimental: (§1) Test solutions are prepared by dissolving the test compound in a 35% acetone in water mixture to give a concentration of 10,000 ppm. Subsequent dilutions are made with water as needed.
Diabrotica undecimrunctata howardi, 3rd instar southern corn rootworm
(§2) One cc of fine talc is placed in a 30 mL wide-mouth screw-top glass jar. One mL of the appropriate acetone test solution is pipetted onto the talc so as to provide 1.25 mg, 0.25 mg or 0.025 mg of active ingredient per jar. The jars are set under a gentle air flow until the acetone is evaporated. The dried talc is loosened, 1 cc of millet seed is added to serve as food for the insects and 25 mL of moist soil is added to each jar. The jar is capped and the contents thoroughly mixed mechanically. Following this, ten 3rd instar rootworms are added to each jar and the jars are loosely capped to allow air exchange for the larvae. The treatments are held for 5 days when mortality counts are made. Missing larvae are presumed dead, since they decompose rapidly and can not be found.

[2] = tested on: Diabrotica virgifera virgifera Leconte, 3rd instar western corn rootworm; experiment: Evaluation against 3rd instar western corn rootworm, treated talc/soil jar test, mortality after 5 days; format: in vivo; conditions: mortality rating 0-9 after 5 days in soil
Experimental: as §1
Diabrotica virgifera virgifera Leconte, 3rd instar western corn rootworm
as §2

CC(C)C(=O)C(C)(C)C(=O)Nc1ccc(C(F)(F)F)cc1 [Compound 1, α,α,α-Trifluoro-2,2,4-trimethyl-3-oxo-p-valerotoluidide]
Southern Corn Rootworm (1 ppm) rating [1]: 9.0
Southern Corn Rootworm (10 ppm) rating [1]: 9.0
Southern Corn Rootworm (50 ppm) rating [1]: 9.0

CC(C)C(=O)C(C)(C)C(=O)N(C)c1ccc(Cl)cc1 [Compound 2, 4′-Chloro-N,2,2,4-tetramethyl-3-oxo-valeranilide]
Southern Corn Rootworm (1 ppm) rating [1]: 0.0
Southern Corn Rootworm (10 ppm) rating [1]: 0.0
Southern Corn Rootworm (50 ppm) rating [1]: 3.5

CC(C)C(O)C(C)(C)C(=O)Nc1ccc(Cl)cc1 (stereo not drawn) [Compound 3, 4′-chloro-3-hydroxy-2,2,4-trimethylvaleranilide]
Southern Corn Rootworm (1 ppm) rating [1]: 0.0
Southern Corn Rootworm (10 ppm) rating [1]: 4.0
Southern Corn Rootworm (50 ppm) rating [1]: 8.0

CC(C)C(O)C(C)(C)C(=O)Nc1ccc(C(F)(F)F)cc1 (stereo not drawn) [Compound 4, α,α,α-Trifluoro-3-hydroxy-2,2,4-trimethyl-p-valerotoluidide]
Southern Corn Rootworm (1 ppm) rating [1]: 0.0
Southern Corn Rootworm (10 ppm) rating [1]: 0.0
Southern Corn Rootworm (50 ppm) rating [1]: 9.0

CC(C)SC(C)(C)C(=O)Nc1ccc(C(F)(F)F)cc1 [Compound 5, α,α,α-Trifluoro-2-(isopropylthio)-2-methyl-p-propionotoluidide]
Southern Corn Rootworm (1 ppm) rating [1]: 0.0
Southern Corn Rootworm (10 ppm) rating [1]: 0.0
Southern Corn Rootworm (50 ppm) rating [1]: 9.0

CC(C)C(=O)C(C)(C)C(=O)N(C(=O)c1ccc(C(F)(F)F)cc1)c1ccc(C(F)(F)F)cc1 [Compound 6, α,α,α,α′,α′,α′-Hexafluoro-N-(2,2,4-trimethyl-3-oxovaleryl)-p-tolu-p-toluidide]
Southern Corn Rootworm (1 ppm) rating [1]: 2.0
Southern Corn Rootworm (10 ppm) rating [1]: 9.0
Southern Corn Rootworm (50 ppm) rating [1]: 9.0

CC(C)C(=O)C(C)(C)C(=O)N(C(=O)c1ccc(Cl)cc1)c1ccc(C(F)(F)F)cc1 [Compound 7, 4-Chloro-α,α,α-trifluoro-N-(2,2,4-trimethyl-3 oxovaleryl)-p-benzotoluidide]
Southern Corn Rootworm (1 ppm) rating [1]: 0.0
Southern Corn Rootworm (10 ppm) rating [1]: 9.0
Southern Corn Rootworm (50 ppm) rating [1]: 9.0

CC(C)C(=O)C(C)(C)C(=O)N(C(=O)c1c(F)cccc1F)c1ccc(C(F)(F)F)cc1 [Compound 8, α,α,α,2,6-Pentafluoro-N-(2,2,4#trimethyl-3 oxovaleryl)-p-benzotoluidide]
Southern Corn Rootworm (1 ppm) rating [1]: 0.0
Southern Corn Rootworm (10 ppm) rating [1]: 0.0
Southern Corn Rootworm (50 ppm) rating [1]: 4.0

CC(=O)OC(C(C)C)C(C)(C)C(=O)Nc1ccc(C(F)(F)F)cc1 (stereo not drawn) [Compound 9, α,α,α-Trifluoro-3-hydroxy-2,2,4-trimethyl-p-valerotoluidide, acetate (ester)]
Southern Corn Rootworm (1 ppm) rating [1]: 0.0
Southern Corn Rootworm (10 ppm) rating [1]: 8.3
Southern Corn Rootworm (50 ppm) rating [1]: 8.3

CCOCN(C(=O)C(C)(C)C(=O)C(C)C)c1ccc(C(F)(F)F)cc1 [Compound 15, N-(Ethoxymethyl)-α,α,α-trifluoro-2,2,4-trimethyl-3-oxo-p-valerotoluidide]
Western Corn Rootworm (1 ppm) rating [2]: 8.0
Western Corn Rootworm (10 ppm) rating [2]: 9.0
Western Corn Rootworm (50 ppm) rating [2]: 9.0

COC(C(C)C)C(C)(C)C(=O)Nc1ccc(C(F)(F)F)cc1 (stereo not drawn) [Compound 16, α,α,α-Trifluoro-3-methoxy-2,2,4-trimethyl-p-valerotoluidide]
Western Corn Rootworm (1 ppm) rating [2]: 0.0
Western Corn Rootworm (10 ppm) rating [2]: 9.0
Western Corn Rootworm (50 ppm) rating [2]: 9.0

CCOCOC(C(C)C)C(C)(C)C(=O)Nc1ccc(C(F)(F)F)cc1 (stereo not drawn) [Compound 17, 3-(Ethoxymethoxy)-α,α,α-trifluoro-2,2,4-trimethyl-p-valerotoluidide]
Western Corn Rootworm (1 ppm) rating [2]: 1.0
Western Corn Rootworm (10 ppm) rating [2]: 9.0
Western Corn Rootworm (50 ppm) rating [2]: 9.0

CC(C)C(OS(C)(=O)=O)C(C)(C)C(=O)Nc1ccc(C(F)(F)F)cc1 (stereo not drawn) [Compound 18, α,α,α-Trifluoro-3-hydroxy-2,2,4-trimethyl-p-valerotoluidide, methanesulfonate (ester)]
Western Corn Rootworm (1 ppm) rating [2]: 0.0
Western Corn Rootworm (10 ppm) rating [2]: 3.0
Western Corn Rootworm (50 ppm) rating [2]: 9.0

C#CCOC(C(C)C)C(C)(C)C(=O)Nc1ccc(C(F)(F)F)cc1 (stereo not drawn) [Compound 19, α,α,α-Trifluoro-2,2,4-trimethyl-3-(2-propynyloxy)-p-valerotoluidide]
Western Corn Rootworm (1 ppm) rating [2]: 0.0
Western Corn Rootworm (10 ppm) rating [2]: 9.0
Western Corn Rootworm (50 ppm) rating [2]: 9.0

CC(C)C(OC(=O)CCl)C(C)(C)C(=O)Nc1ccc(C(F)(F)F)cc1 (stereo not drawn) [Compound 20, 3-Hydroxy-α,α,α-trifluoro-2,2,4-trimethyl-p-valerotoluidide, chloroacetate (ester)]
Western Corn Rootworm (1 ppm) rating [2]: 0.0
Western Corn Rootworm (10 ppm) rating [2]: 5.0
Western Corn Rootworm (50 ppm) rating [2]: 9.0

CC(C)(C)C(=O)C(C)(C)C(=O)Nc1ccc(C(F)(F)F)cc1 [Compound 21, α,α,α-Trifluoro-2,2,4,4-tetramethyl-3-oxo-p-valerotoluidide]
Western Corn Rootworm (1 ppm) rating [2]: 0.0
Western Corn Rootworm (10 ppm) rating [2]: 9.0
Western Corn Rootworm (50 ppm) rating [2]: 9.0

C=CCOC(C(C)C)C(C)(C)C(=O)Nc1ccc(C(F)(F)F)cc1 (stereo not drawn) [Compound 22, 3-(Allyloxy)-α,α,α-trifluoro-2,2,4-trimethyl-p-valerotoluidide]
Western Corn Rootworm (1 ppm) rating [2]: 0.0
Western Corn Rootworm (10 ppm) rating [2]: 9.0
Western Corn Rootworm (50 ppm) rating [2]: 9.0

CC(C)OC(C(C)C)C(C)(C)C(=O)Nc1ccc(C(F)(F)F)cc1 (stereo not drawn) [Compound 23, α,α,α-Trifluoro-3-(isopropoxy)-2,2,4-trimethyl-p-valerotoluidide]
Western Corn Rootworm (1 ppm) rating [2]: 0.0
Western Corn Rootworm (10 ppm) rating [2]: 9.0
Western Corn Rootworm (50 ppm) rating [2]: 9.0

CCOC(C(C)C)C(C)(C)C(=O)Nc1ccc(C(F)(F)F)cc1 (stereo not drawn) [Compound 24, 3-Ethoxy-α,α,α-trifluoro-2,2,4-trimethyl-p-valerotoluidide]
Western Corn Rootworm (1 ppm) rating [2]: 0.0
Western Corn Rootworm (10 ppm) rating [2]: 9.0
Western Corn Rootworm (50 ppm) rating [2]: 9.0

CC(C)C(=O)C1(C(=O)Nc2ccc(C(F)(F)F)cc2)CC1 [Compound 25, α,α,α-Trifluoro-1-isobutyrylcyclopropanecarboxy-p-toluidide]
Western Corn Rootworm (1 ppm) rating [2]: 0.0
Western Corn Rootworm (10 ppm) rating [2]: 0.0
Western Corn Rootworm (50 ppm) rating [2]: 7.0

CC(C)C(OC1CCCC1)C(C)(C)C(=O)Nc1ccc(C(F)(F)F)cc1 (stereo not drawn) [Compound 26, 3-(Cyclopentyloxy)-α,α,α-trifluoro-2,2,4-trimethyl-p-valerotoluidide]
Western Corn Rootworm (1 ppm) rating [2]: 0.0
Western Corn Rootworm (10 ppm) rating [2]: 0.0
Western Corn Rootworm (50 ppm) rating [2]: 8.0

CCCCCCOC(C(C)C)C(C)(C)C(=O)Nc1ccc(C(F)(F)F)cc1 (stereo not drawn) [Compound 27, α,α,α-Trifluoro-3-(hexyloxy)-2,2,4-trimethyl-p-valerotoluidide]
Western Corn Rootworm (1 ppm) rating [2]: 0.0
Western Corn Rootworm (10 ppm) rating [2]: 0.0
Western Corn Rootworm (50 ppm) rating [2]: 9.0

COC(C(C)C)C(C)(C)C(=O)Nc1ccc(Cl)cc1 (stereo not drawn) [Compound 28, 4′-Chloro-3-methoxy-2,2,4-trimethylvaleranilide]
Western Corn Rootworm (1 ppm) rating [2]: 0.0
Western Corn Rootworm (10 ppm) rating [2]: 5.0
Western Corn Rootworm (50 ppm) rating [2]: 9.0

CC(C)C(=O)C(C)C(=O)Nc1ccc(C(F)(F)F)cc1 (stereo not drawn) [Compound 29, α,α,α-Trifluoro-2,4-dimethyl-3-oxo-p-valerotoluidide]
Western Corn Rootworm (1 ppm) rating [2]: 0.0
Western Corn Rootworm (10 ppm) rating [2]: 0.0
Western Corn Rootworm (50 ppm) rating [2]: 8.5

CC(C)OC(C)(C)C(=O)Nc1ccc(C(F)(F)F)cc1 [Compound 30, α,α,α-Trifluoro-2-isopropoxy-2-methyl-p-propionotoluidide]
Western Corn Rootworm (1 ppm) rating [2]: 0.0
Western Corn Rootworm (10 ppm) rating [2]: 9.0
Western Corn Rootworm (50 ppm) rating [2]: 9.0

CC(C)C(=O)C(C)(Cl)C(=O)Nc1ccc(C(F)(F)F)cc1 (stereo not drawn) [Compound 31]
Western Corn Rootworm (1 ppm) rating [2]: 0.0
Western Corn Rootworm (10 ppm) rating [2]: 0.0
Western Corn Rootworm (50 ppm) rating [2]: 4.0

CC(C)CC(C)C(=O)Nc1ccc(C(F)(F)F)c(OC(F)F)c1 (stereo not drawn) [Compound 32, 3-(Difluoromethoxy)-α,α,α-trifluoro-2,4-dimethyl-p-valerotoiuidide]
Western Corn Rootworm (1 ppm) rating [2]: 0.0
Western Corn Rootworm (10 ppm) rating [2]: 4.0
Western Corn Rootworm (50 ppm) rating [2]: 4.0

CC(C)C(OC=O)C(C)(C)C(=O)Nc1ccc(C(F)(F)F)cc1 (stereo not drawn) [Compound 33, α,α,α-Trifluoro-3-hydroxy-2,2,4-trimethyl-p-valerotoiuidide, formate (ester)]
Western Corn Rootworm (1 ppm) rating [2]: 0.0
Western Corn Rootworm (10 ppm) rating [2]: 5.0
Western Corn Rootworm (50 ppm) rating [2]: 9.0

CC(C)(C)OC(C)(C)C(=O)Nc1ccc(C(F)(F)F)cc1 [Compound 34, 2-tert-Butoxy-α,α,α-trifluoro-2-methyl-p-propionotoluidide]
Western Corn Rootworm (1 ppm) rating [2]: 2.0
Western Corn Rootworm (10 ppm) rating [2]: 9.0
Western Corn Rootworm (50 ppm) rating [2]: 9.0

CCOC(C)(C)C(=O)Nc1ccc(C(F)(F)F)cc1 [Compound 35, 2-Ethoxy-α,α,α-trifluoro-2-methyl-p-propionotoluidide]
Western Corn Rootworm (1 ppm) rating [2]: 0.0
Western Corn Rootworm (10 ppm) rating [2]: 3.0
Western Corn Rootworm (50 ppm) rating [2]: 9.0

CC(C)C(=O)C(C)(C)C(=O)N(C)c1ccc(C(F)(F)F)cc1 [Compound 36, α,α,α-Trifluoro-N,2,2,4-tetramethyl-3-oxo-p-valerotoluidide]
Western Corn Rootworm (1 ppm) rating [2]: 2.0
Western Corn Rootworm (10 ppm) rating [2]: 9.0
Western Corn Rootworm (50 ppm) rating [2]: 9.0
